Reference: patent publication EP0057141A2, “Esters of halogene-biphenylcarboxylates, method of preparation and their application as medicines” (PIERRE FABRE S.A., priority 1981, dated 1982)

Test: Solubility in water and solvents
Type: physicochemical
Conditions: for Solubilités : éthanol: ethanol; for Solubilités : propylène glycol: propylene glycol; for Solubilités : eau: result in words

Compound | Solubilités : diméthyl sulfoxyde (DMSO) | Solubilités : éthanol | Solubilités : propylène glycol | Solubilités : eau (water) | Solubilités : DMA (DMA) | solubility (water, read-out: Solubilités : eau)
CCOC(=O)c1ccc(-c2ccccc2Cl)cc1 [Exemple 1, chloro-2' biphényl-4 carboxylate d'éthyle] | 20% | 5% | 1% | insoluble | – | –
CC(C)OC(=O)c1ccc(-c2ccccc2Cl)cc1 [Exemple 2, chloro-2' biphényl-4 carboxylate d'isopropyle] | 10% | 2% | 1% | insoluble | – | –
CCCCCCCCOC(=O)c1ccc(-c2ccccc2Cl)cc1 [Exemple 3, chloro-2' biphényl-4 carboxylate de n-octyle] | 20% | 5% | 0,1% | insoluble | – | –
CCCCCCCCCCCCCCCCOC(=O)c1ccc(-c2ccccc2Cl)cc1 [Exemple 4, chloro-2' biphényl-4 carboxylate de n-hexadecyle] | 0,1% | 0,5% | 0,1% | insoluble | 1% | –
CC1CC(OC(=O)c2ccc(-c3ccccc3Cl)cc2)CC(C)(C)C1 (stereo not drawn) [Exemple 5, chloro-2^1 biphényl-4 carboxylatede triméthyl-3-3-5 clohexyle] | 20% | 2% | 0,1% | insoluble | – | –
O=C(OCc1ccccc1)c1ccc(-c2ccccc2Cl)cc1 [Exemple 6, chloro-2' biphényl-4 carboxylate de benzyle] | 20% | 2% | 0,2% | Insoluble | – | –
CN(C)CCOC(=O)c1ccc(-c2ccccc2Cl)cc1 [Exemple 9, chloro-2' biphényl-4 carboxylate de diméthylamino-2 éthyle, chlorhydrate] | 12% | – | – | – | – | 100 mg/mL
O=C(OCc1cccnc1)c1ccc(-c2ccccc2Cl)cc1 [Exemple 10, chloro-2' biphényl-4 carboxylate de pyridyl-3 méthyle, chlorhydrate] | 12% | – | 0,1% | insoluble | – | –
